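Assay format: 96-well plates, 48-hour exposure. TGI marks complete inhibition of growth.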
How the values were obtained:
Assay in all cases: NCI tumour cell line growth inhibition, 48 h
786-0 renal = test system: 786-0 renal
A498 renal = test system: A498 renal
A549 NSCLC = test system: A549 NSCLC
ACHN renal = test system: ACHN renal
CCRF-CEM leukemia = test system: CCRF-CEM leukemia
COLO 205 colon = test system: COLO 205 colon
DLD-1 colon = test system: DLD-1 colon
DMS 114 small cell lung = test system: DMS 114 small cell lung
EKVX NSCLC = test system: EKVX NSCLC
HCC-2998 colon = test system: HCC-2998 colon
HCT-116 colon = test system: HCT-116 colon
HCT-15 colon = test system: HCT-15 colon
HL-60(TB) leukemia = test system: HL-60(TB) leukemia
HOP-18 NSCLC = test system: HOP-18 NSCLC
HOP-62 NSCLC = test system: HOP-62 NSCLC
HOP-92 NSCLC = test system: HOP-92 NSCLC
HT29 colon = test system: HT29 colon
IGROV1 ovarian = test system: IGROV1 ovarian
K-562 leukemia = test system: K-562 leukemia
KM12 colon = test system: KM12 colon
KM20L2 colon = test system: KM20L2 colon
LXFL 529 NSCLC = test system: LXFL 529 NSCLC
M14 melanoma = test system: M14 melanoma
M19-MEL melanoma = test system: M19-MEL melanoma
MALME-3M melanoma = test system: MALME-3M melanoma
MOLT-4 leukemia = test system: MOLT-4 leukemia
NCI-H23 lung = test system: NCI-H23 lung
NCI-H460 lung = test system: NCI-H460 lung
NCI-H522 lung = test system: NCI-H522 lung
OVCAR-5 ovarian = test system: OVCAR-5 ovarian
OVCAR-8 ovarian = test system: OVCAR-8 ovarian
RXF 393 renal = test system: RXF 393 renal
SF-268 CNS = test system: SF-268 CNS
SF-295 CNS = test system: SF-295 CNS
SF-539 CNS = test system: SF-539 CNS
SK-MEL-2 melanoma = test system: SK-MEL-2 melanoma
SK-MEL-5 melanoma = test system: SK-MEL-5 melanoma
SN12C renal = test system: SN12C renal
SNB-19 CNS = test system: SNB-19 CNS
SNB-78 CNS = test system: SNB-78 CNS
SR leukemia = test system: SR leukemia
SW-620 colon = test system: SW-620 colon
TK-10 renal = test system: TK-10 renal
U251 CNS = test system: U251 CNS
UACC-257 melanoma = test system: UACC-257 melanoma
UACC-62 melanoma = test system: UACC-62 melanoma
UO-31 renal = test system: UO-31 renal
CAKI-1 renal = test system: CAKI-1 renal
DMS 273 small cell lung = test system: DMS 273 small cell lung
LOX IMVI melanoma = test system: LOX IMVI melanoma
NCI-H226 lung = test system: NCI-H226 lung
OVCAR-3 ovarian = test system: OVCAR-3 ovarian
OVCAR-4 ovarian = test system: OVCAR-4 ovarian
SK-MEL-28 melanoma = test system: SK-MEL-28 melanoma
SK-OV-3 ovarian = test system: SK-OV-3 ovarian
SNB-75 CNS = test system: SNB-75 CNS

Work on `O=C1OC(c2ccccc2)=N/C1=C\c1ccc(Oc2ccc(Cl)c(Cl)c2)cc1` yielded a TGI (786-0 renal) of over 100 µM, a TGI (A498 renal) of over 100 µM and a TGI (A549 NSCLC) of over 100 µM. It also gave a TGI (ACHN renal) of over 100 µM, a TGI (CCRF-CEM leukemia) of 59.9 µM and a TGI (COLO 205 colon) of over 100 µM. It also gave a TGI (DLD-1 colon) of over 100 µM, a TGI (DMS 114 small cell lung) of 35.6 µM and a TGI (EKVX NSCLC) of over 100 µM. For the same compound, the TGI (HCC-2998 colon) was over 100 µM, the TGI (HCT-116 colon) was over 100 µM and the TGI (HCT-15 colon) was over 100 µM. For the same compound, the TGI (HL-60(TB) leukemia) was 56.9 µM, the TGI (HOP-18 NSCLC) was over 100 µM and the TGI (HOP-62 NSCLC) was over 100 µM. For the same compound, the TGI (HOP-92 NSCLC) was over 100 µM, the TGI (HT29 colon) was over 100 µM and the TGI (IGROV1 ovarian) was over 100 µM. For the same compound, the TGI (K-562 leukemia) was 73.6 µM, the TGI (KM12 colon) was over 100 µM and the TGI (KM20L2 colon) was over 100 µM. For the same compound, the TGI (LXFL 529 NSCLC) was 85.6 µM, the TGI (M14 melanoma) was over 100 µM and the TGI (M19-MEL melanoma) was over 100 µM. The TGI (MALME-3M melanoma) was over 100 µM, the TGI (MOLT-4 leukemia) was 60.6 µM and the TGI (NCI-H23 lung) was over 100 µM. For the same compound, the TGI (NCI-H460 lung) was over 100 µM, the TGI (NCI-H522 lung) was over 100 µM and the TGI (OVCAR-5 ovarian) was over 100 µM. For the same compound, the TGI (OVCAR-8 ovarian) was 46 µM, the TGI (RXF 393 renal) was 69.3 µM and the TGI (SF-268 CNS) was 57.6 µM. For the same compound, the TGI (SF-295 CNS) was over 100 µM, the TGI (SF-539 CNS) was 58.4 µM and the TGI (SK-MEL-2 melanoma) was over 100 µM. The TGI (SK-MEL-5 melanoma) was 81.6 µM, the TGI (SN12C renal) was over 100 µM and the TGI (SNB-19 CNS) was over 100 µM. The TGI (SNB-78 CNS) was 85.7 µM, the TGI (SR leukemia) was 57 µM and the TGI (SW-620 colon) was over 100 µM. For the same compound, the TGI (TK-10 renal) was over 100 µM, the TGI (U251 CNS) was 65.9 µM and the TGI (UACC-257 melanoma) was over 100 µM. It also gave a TGI (UACC-62 melanoma) of 52.3 µM and a TGI (UO-31 renal) of 78.8 µM.

`O=c1nc(-c2ccccc2)cc(CC(O)c2ccc(Cl)c(Cl)c2)[nH]1` (stereo unspecified) gave a TGI (786-0 renal) of over 100 µM, a TGI (A498 renal) of 77.2 µM and a TGI (A549 NSCLC) of over 100 µM. For the same compound, the TGI (ACHN renal) was over 100 µM, the TGI (CAKI-1 renal) was over 100 µM and the TGI (CCRF-CEM leukemia) was over 100 µM. The TGI (COLO 205 colon) was 31.7 µM, the TGI (DLD-1 colon) was over 100 µM and the TGI (DMS 114 small cell lung) was over 100 µM. It also gave a TGI (DMS 273 small cell lung) of over 100 µM, a TGI (EKVX NSCLC) of over 100 µM and a TGI (HCC-2998 colon) of over 100 µM. It also gave a TGI (HCT-116 colon) of over 100 µM, a TGI (HCT-15 colon) of over 100 µM and a TGI (HL-60(TB) leukemia) of 76 µM. It also gave a TGI (HOP-18 NSCLC) of over 100 µM, a TGI (HOP-62 NSCLC) of over 100 µM and a TGI (HOP-92 NSCLC) of over 100 µM. The TGI (HT29 colon) was over 100 µM, the TGI (IGROV1 ovarian) was over 100 µM and the TGI (K-562 leukemia) was over 100 µM. For the same compound, the TGI (KM12 colon) was over 100 µM, the TGI (KM20L2 colon) was over 100 µM and the TGI (LOX IMVI melanoma) was over 100 µM. For the same compound, the TGI (LXFL 529 NSCLC) was over 100 µM, the TGI (M14 melanoma) was over 100 µM and the TGI (M19-MEL melanoma) was over 100 µM. The TGI (MALME-3M melanoma) was over 100 µM, the TGI (MOLT-4 leukemia) was over 100 µM and the TGI (NCI-H226 lung) was over 100 µM. For the same compound, the TGI (NCI-H23 lung) was over 100 µM, the TGI (NCI-H460 lung) was over 100 µM and the TGI (NCI-H522 lung) was 90.8 µM. For the same compound, the TGI (OVCAR-3 ovarian) was over 100 µM, the TGI (OVCAR-4 ovarian) was over 100 µM and the TGI (OVCAR-5 ovarian) was 82 µM. For the same compound, the TGI (OVCAR-8 ovarian) was over 100 µM, the TGI (RXF 393 renal) was over 100 µM and the TGI (SF-268 CNS) was over 100 µM. For the same compound, the TGI (SF-295 CNS) was over 100 µM, the TGI (SF-539 CNS) was over 100 µM and the TGI (SK-MEL-2 melanoma) was 65.3 µM. For the same compound, the TGI (SK-MEL-28 melanoma) was over 100 µM, the TGI (SK-MEL-5 melanoma) was over 100 µM and the TGI (SK-OV-3 ovarian) was over 100 µM. It also gave a TGI (SN12C renal) of over 100 µM, a TGI (SNB-19 CNS) of over 100 µM and a TGI (SNB-75 CNS) of over 100 µM. For the same compound, the TGI (SW-620 colon) was over 100 µM, the TGI (TK-10 renal) was over 100 µM and the TGI (U251 CNS) was over 100 µM. It also gave a TGI (UACC-257 melanoma) of over 100 µM, a TGI (UACC-62 melanoma) of over 100 µM and a TGI (UO-31 renal) of 99.3 µM.
